US20090005435A1, “Novel Compounds, Pharmaceutical Compositions Containing Same, and Methods of Use for Same” (priority 2004, published 2009)
≈ marks a conversion by molar mass, not a printed value. Where “and” joins values, the source holds several entries; their conditions need not be identical. Identical values can stand only once.

Assays:
[1] = molecular target: rat liver acyl-CoA synthetase; settings: read-out: 50% inhibition of rat liver acyl-CoA synthetase; cited from earlier work
Raji cells = settings: cited from earlier work
purified human FAS = molecular target: T1, purified human FAS (Homo sapiens, UniProt P49327); assay: FAS enzymatic activity (malonyl-CoA dependent NADPH oxidation); assay type: biochemical; settings: (SB)
T1 construct: Human FAS was purified from cultured ZR-75-1 human breast cancer cells; endogenous in cells; host or cells: ZR-75-1 human breast cancer cells (ATCC); enzyme purified by PEG precipitation and Mono Q chromatography
Method: Purification of FAS from ZR-75-1 Human Breast Cancer Cells.
Human FAS was purified from cultured ZR-75-1 human breast cancer cells obtained from the American Type Culture Collection. The procedure, adapted from Linn et al., 1981, and Kuhajda et al., 1994, utilizes hypotonic lysis, successive polyethyleneglycol (PEG) precipitations, and anion exchange chromatography. ZR-75-1 cells are cultured at 37° C. with 5% CO2 in RPMI culture medium with 10% fetal bovine serum, penicillin and streptomycin.
Ten T150 flasks of confluent cells are lysed with 1.5 ml lysis buffer (20 mM Tris-HCl, pH 7.5, 1 mM EDTA, 0.1 mM phenylmethanesulfonyl fluoride (PMSF), 0.1% Igepal CA-630) and dounce homogenized on ice for 20 strokes. The lysate is centrifuged in JA-20 rotor (Beckman) at 20,000 rpm for 30 minutes at 4° C. and the supernatant is brought to 42 ml with lysis buffer. A solution of 50% PEG 8000 in lysis buffer is added slowly to the supernatant to a final concentration of 7.5%. After rocking for 60 minutes at 4° C., the solution is centrifuged in JA-20 rotor (Beckman) at 15,000 rpm for 30 minutes at 4° C. Solid PEG 8000 is then added to the supernatant to a final concentration of 15%. After the rocking and centrifugation is repeated as above, the pellet is resuspended overnight at 4° C. in 10 ml of Buffer A (20 mM K2HPO4, pH 7.4). After […] filtration, the protein solution is applied to a Mono Q 5/5 anion exchange column (Pharmacia). The column is washed for 15 minutes with buffer A at 1 ml/minute, and bound material is eluted with a linear 60-ml gradient over 60 minutes to 1 M KCl. FAS (MW˜270 kD) typically elutes at 0.25 M KCl in three 0.5 ml fractions identified using 4-15% SDS-PAGE with Coomassie G250 stain (Bio-Rad). FAS protein concentration is determined using the Coomassie Plus Protein Assay Reagent (Pierce) according to manufacturer's specifications using BSA as a standard. This procedure results in substantially pure preparations of FAS (>95%) as judged by Coomassie-stained gels.
Measurement of FAS Enzymatic Activity and Determination of the IC50 of the Compounds
FAS activity is measured by monitoring the malonyl-CoA dependent oxidation of NADPH spectrophotometrically at OD340 in 96-well plates (Dils et al and Arslanian et al, 1975). Each well contains 2 μg purified FAS, 100 mM K2HPO4, pH 6.5, 1 mM dithiothreitol (Sigma), and 187.5 μM β-NADPH (Sigma). Stock solutions of inhibitors are prepared in DMSO at 2, 1, and 0.5 mg/ml resulting in final concentrations of 20, 10, and 5 μg/ml when 1 μl of stock is added per well. For each experiment, cerulenin (Sigma) is run as a positive control along with DMSO controls, inhibitors, and blanks (no FAS enzyme) all in duplicate.
The assay is performed on a Molecular Devices SpectraMax Plus Spectrophotometer. The plate containing FAS, buffers, inhibitors, and controls are placed in the spectrophotometer heated to 37° C. Using the kinetic protocol, the wells are blanked on duplicate wells containing 100 μl of 100 mM K2HPO4, pH 6.5 and the plate is read at OD340 at 10 sec intervals for 5 minutes to measure any malonyl-CoA independent oxidation of NADPH. The plate is removed from the spectrophotometer and malonyl-CoA (67.4 μM, final concentration per well) and […] (61.8 μM, final concentration per well) are added to each well except to the blanks. The plate is read again as above with the kinetic protocol to measure the malonyl-CoA dependent NADPH oxidation. The difference between the Δ OD340 for the malonyl-CoA dependent and non-malonyl-CoA dependent NADPH oxidation is the specific FAS activity. Because of the purity of the FAS preparation, non-malonyl-CoA dependent NADPH oxidation is negligible.
The IC50 for the compounds against FAS is determined by plotting the Δ OD340 for each inhibitor concentration tested, performing linear regression and computing the best-fit line, r^2 values, and 95% confidence intervals. The concentration of compound yielding 50% inhibition of FAS is the IC50. […]

[2] = system: MCF-7 human breast cancer cells; assay: XTT cytotoxicity assay (M); assay type: cell-based; settings: MCF7
Method: (§1) The XTT assay is a non-radioactive alternative for the [^51Cr] release cytotoxicity assay. XTT is a tetrazolium salt that is reduced to a formazan dye only by metabolically active, viable cells. The reduction of XTT is measured spectrophotometrically as OD490-OD650.
To measure the cytotoxicity of specific compounds against cancer cells, 9×10^3 MCF-7 human breast cancer cells, obtained from the American Type Culture Collection are plated per well in 96 well plates in DMEM medium with 10% fetal bovine serum, insulin, penicillin, and streptomycin. Following overnight culture at 37° C. and 5% CO2, the compounds to be tested, dissolved in DMSO, are added to the wells in 1 μl volume at the following concentrations: 80, 40, 20, 10, 5, 2.5, 1.25, and 0.625 μg/ml in triplicate. Additional concentrations are tested if required. 1 μl of DMSO is added to triplicate wells are the vehicle control. C75 is run at 40, 20, […], and 5 μg/ml in triplicate as positive controls.
(§2) After 72 hours of incubation, cells are incubated for 4 hours with the XTT reagent as per manufacturer's instructions (Cell Proliferation Kit II (XTT) Roche). Plates are read at OD490 and OD650 on a Molecular Devices SpectraMax Plus Spectrophotometer. Three wells containing the XTT reagent without cells serve as the plate blank. XTT data are reported as OD490-OD650. Averages and standard error of the mean are computed using SOFTmax Pro software ([…]).
(§3) The IC50 for the compounds is defined as the concentration of drug leading to a 50% reduction in OD490-OD650 compared to controls. The OD490-OD650 are computed by the SOFTmax PRO software (Molecular Devices) for each compound concentration. IC50 is calculated by linear regression, plotting the FAS activity as percent of control versus drug concentrations. Linear regression, best-fit line, r^2, and 95% confidence intervals are determined using Prism Version 3.0 (Graph Pad Software).

(O) = assay: XTT cytotoxicity assay (O); assay type: cell-based; settings: read-out: XTT (IC50) (O)
Method: as §1, §2, §3

fatty acid oxidation = assay: β-Oxidation assay, isolation of acid soluble products; assay type: cell-based; design: Beta Oxidation: unit not given here; settings: for FAO MAx: maximal fatty acid oxidation, at the concentration given under E32
Method: β-Oxidation Assay—Isolation of Acid Soluble Products A 24 well plate with 1 ml per well was prepared with 2.5×10^5 cells/well. The cells were incubated O/N. The next day, a solubilized palmitate solution was prepared. 50 μls of (1-^14C) Palmitic acid was added to a 2 ml centrifuge tube and dried under nitrogen gas. 2 mls of α-CD (α-Cyclodextran)-10 mg/ml in 10 mM Tris were added. This solution was incubated in a 37° C. water bath for 30 minutes. A hot mix was prepared by adding 25 μls of this solution to 2.5 μls of 200 μM Carnitine and 222.5 μls of serum free medium that is used for cells. The cells were then treated with the test compound in triplicate, and incubated at 37° C. for 60 minutes. The medium was removed and 250 μls of the hot mix were added. The test compound was added again, and further incubated at 37° C. for 60 minutes. The reaction was stopped with 50 μls of 2.6 N HClO4. The contents of the plate were transferred to a 1.5 ml centrifuge tube, and 50 μls of 4N KOH were then added, and the tube incubated in a 60° C. water bath for 30 min. Sodium acetate (1M, 75 μls) and sulfuric acid (3N, 50 μls) were added to the solution and vortexed. The tube was spun for 7 minutes at 1000 rpm at room temperature. A portion (225 μls) was removed, and the following were added (vortex after each addition, twice at the end): 938 μls of 1:1 Chloroform:Methanol; 468 μls of Chloroform; 281 μls distilled Water. The tubes were spun at 1000 rpm for 5 minutes. The upper phase was removed into a large glass scintillation vial and 5 mls of Budget solvent (scintillation liquid) was added. The tubes were well vortexed. Finally, C14 was counted for one minute.

viral HIV protease = viral HIV protease (Human immunodeficiency virus type 1 group M subtype B, UniProt P04585); settings: cited from earlier work
[3] = system: Mycobacterium tuberculosis; settings: in vitro; cited from earlier work

T1 sequence (P49327 whole entry): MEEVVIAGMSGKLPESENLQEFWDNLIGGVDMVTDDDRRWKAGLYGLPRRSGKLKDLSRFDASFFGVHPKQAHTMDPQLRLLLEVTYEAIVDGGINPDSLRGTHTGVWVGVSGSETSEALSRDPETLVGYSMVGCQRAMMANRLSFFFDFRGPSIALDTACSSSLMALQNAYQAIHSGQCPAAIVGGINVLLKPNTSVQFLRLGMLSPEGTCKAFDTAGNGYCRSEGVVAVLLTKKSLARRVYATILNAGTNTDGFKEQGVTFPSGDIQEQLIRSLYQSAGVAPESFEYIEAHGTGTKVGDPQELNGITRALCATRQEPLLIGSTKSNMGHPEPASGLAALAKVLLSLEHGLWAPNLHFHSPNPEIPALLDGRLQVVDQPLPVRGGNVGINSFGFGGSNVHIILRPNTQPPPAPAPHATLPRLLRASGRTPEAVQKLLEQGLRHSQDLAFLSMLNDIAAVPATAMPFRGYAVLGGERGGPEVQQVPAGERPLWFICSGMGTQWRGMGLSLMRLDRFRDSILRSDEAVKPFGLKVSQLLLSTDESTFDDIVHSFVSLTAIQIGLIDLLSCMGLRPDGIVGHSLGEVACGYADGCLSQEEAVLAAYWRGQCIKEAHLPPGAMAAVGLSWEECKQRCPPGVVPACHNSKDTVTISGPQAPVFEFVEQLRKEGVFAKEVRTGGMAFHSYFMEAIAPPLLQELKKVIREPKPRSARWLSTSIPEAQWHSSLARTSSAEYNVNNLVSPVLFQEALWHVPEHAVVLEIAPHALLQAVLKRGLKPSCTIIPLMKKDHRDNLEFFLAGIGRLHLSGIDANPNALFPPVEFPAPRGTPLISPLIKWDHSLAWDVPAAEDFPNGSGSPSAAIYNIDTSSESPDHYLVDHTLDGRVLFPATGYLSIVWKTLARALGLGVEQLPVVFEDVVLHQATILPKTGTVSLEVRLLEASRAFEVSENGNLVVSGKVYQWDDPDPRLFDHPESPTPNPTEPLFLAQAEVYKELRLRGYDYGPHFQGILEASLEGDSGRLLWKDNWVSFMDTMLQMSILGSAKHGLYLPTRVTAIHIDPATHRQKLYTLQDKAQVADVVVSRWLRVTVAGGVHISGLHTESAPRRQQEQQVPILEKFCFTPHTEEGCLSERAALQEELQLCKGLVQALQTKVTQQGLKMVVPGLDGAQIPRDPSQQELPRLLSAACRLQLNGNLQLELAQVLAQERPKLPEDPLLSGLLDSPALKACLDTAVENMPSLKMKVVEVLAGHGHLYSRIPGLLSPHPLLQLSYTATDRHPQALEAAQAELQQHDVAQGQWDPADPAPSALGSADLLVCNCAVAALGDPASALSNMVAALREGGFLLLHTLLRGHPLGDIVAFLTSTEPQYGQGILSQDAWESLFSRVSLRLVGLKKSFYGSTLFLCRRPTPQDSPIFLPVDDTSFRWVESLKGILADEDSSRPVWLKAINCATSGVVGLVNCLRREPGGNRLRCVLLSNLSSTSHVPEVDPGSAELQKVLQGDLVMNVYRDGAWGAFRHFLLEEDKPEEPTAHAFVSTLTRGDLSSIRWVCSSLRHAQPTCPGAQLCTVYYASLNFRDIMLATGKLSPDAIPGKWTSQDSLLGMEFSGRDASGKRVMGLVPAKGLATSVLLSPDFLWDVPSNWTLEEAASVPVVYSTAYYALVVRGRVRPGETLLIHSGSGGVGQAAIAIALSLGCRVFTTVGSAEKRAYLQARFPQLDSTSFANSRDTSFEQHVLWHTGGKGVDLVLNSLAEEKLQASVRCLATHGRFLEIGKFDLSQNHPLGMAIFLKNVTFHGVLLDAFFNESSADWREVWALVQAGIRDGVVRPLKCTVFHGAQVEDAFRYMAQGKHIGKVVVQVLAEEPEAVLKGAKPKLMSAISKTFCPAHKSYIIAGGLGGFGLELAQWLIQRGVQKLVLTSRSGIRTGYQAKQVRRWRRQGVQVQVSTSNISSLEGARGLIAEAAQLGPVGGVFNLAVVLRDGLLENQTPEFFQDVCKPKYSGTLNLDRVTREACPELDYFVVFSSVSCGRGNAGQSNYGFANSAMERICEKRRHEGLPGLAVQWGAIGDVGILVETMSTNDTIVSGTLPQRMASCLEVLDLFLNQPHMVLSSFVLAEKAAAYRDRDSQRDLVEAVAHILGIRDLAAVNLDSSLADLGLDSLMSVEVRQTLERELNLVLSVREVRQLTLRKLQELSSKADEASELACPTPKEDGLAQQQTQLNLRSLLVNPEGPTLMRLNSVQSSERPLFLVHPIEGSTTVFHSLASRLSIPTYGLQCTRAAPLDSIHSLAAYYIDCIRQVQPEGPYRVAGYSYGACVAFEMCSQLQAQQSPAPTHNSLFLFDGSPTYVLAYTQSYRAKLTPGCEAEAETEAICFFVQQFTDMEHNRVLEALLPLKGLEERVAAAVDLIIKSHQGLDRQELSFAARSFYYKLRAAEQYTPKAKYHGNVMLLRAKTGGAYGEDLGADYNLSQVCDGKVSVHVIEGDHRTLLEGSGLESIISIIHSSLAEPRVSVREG

| Compound | IC50 [1] | growth inhibition in Raji cells at (Raji cells) | FAS (IC50) (SB) (purified human FAS) | IC50 [2] | IC50 ((O)) | FAO MAx, concentration at maximum (fatty acid oxidation) | FAO SC 150 (fatty acid oxidation) | Beta Oxidation (fatty acid oxidation; 0.097 ug/ml) | Beta Oxidation (fatty acid oxidation; 0.39 ug/ml) | Beta Oxidation (fatty acid oxidation; 1.56 ug/ml) | Beta Oxidation (fatty acid oxidation; 6.25 ug/ml) | Beta Oxidation (fatty acid oxidation; 25 ug/ml) | Beta Oxidation (fatty acid oxidation; 100 ug/ml) | FAO MAx (fatty acid oxidation) | inhibition of viral HIV protease at (viral HIV protease) | activity against Mycobacterium tuberculosis [3] |
| --- | --- | --- | --- | --- | --- | --- | --- | --- | --- | --- | --- | --- | --- | --- | --- | --- |
| CCCC=CCC=CC=CC=NN=NO [Triacsin C, 1-hydroxy-3-(E,E,E-2′,4′,7′-undecatrienylidine) triazene] | 8.7 µM | 1.0 µM | – | – | – | – | – | – | – | – | – | – | – | – | – | – |
| CCCCCCCCC1(C)SC(=O)C(C)(C)C1=O (stereo not shown) [Compound 6, 3,3,5-Trimethyl-5-octyl-thiophene-2,4-dione] | – | – | Neg (SB) | 23 µg/mL (≈ 85 µM) | > 80 µg/mL | 6.25 µg/mL | Neg | 100 and 86 | 110 and 93 | 110 and 102 | 121 and 141 and 130 | 57 and 52 and 53 | 19 and 29 | 141% at | – | – |
| CCCCCCC1(C)SC(=O)C(C)(C)C1=O (stereo not shown) [Compound 9, 3,3,5-Trimethyl-5-hexyl-thiophene-2,4-dione] | – | – | Neg (SB) | 5.3 µg/mL (≈ 21.9 µM) | 14 µg/mL (≈ 57.8 µM) | 6.25 µg/mL | Neg | 96 | 99 | 97 | 115 | 58 | 27 | 115% | – | – |
| C/C=C/C/C=C/CCC(=O)[C@H]1O[C@H]1C(N)=O [cerulenin, (2S,3R)-2,3-epoxy-4-oxo-7,10 dodecadienoyl amide] | – | – | – | – | – | – | – | – | – | – | – | – | – | – | 5 mg/mL | no activity was found |
